By EC50 is commonly meant the concentration needed to bring the measured effect to its halfway point. For orientation: IC50 means the concentration that inhibits the measured activity by half.

This note sets out measurements from PubChem BioAssay AID179 (DTP/NCI, 2004).

Activity calls are given as the source filed them.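 How the source made its calls: active means compounds giving half or more protection of infected cells from virus-caused growth loss, again on retest; inactive means the rest.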 Where a SMILES comes first, the peptide text is derived from it.

For this assay, the system named is CEM cells HIV-1 protection, formazan growth assay. The assay can be described thus: NCI AIDS Antiviral Assay. Conditions: for IC50: measured here: growth of uninfected CEM cells. Put shortly: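 Steps: treat uninfected and HIV-1-infected human CEM cells at five drug levels; quantify growth by soluble formazan; retest any compound reaching 50% protection; classify actives from the retest.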

As to `COc1ccc2c(c1)C(=O)CC(c1ccccc1)O2` (configuration not stated), the EC50 is above 200 µM and the IC50 was above 200 µM.

`CCCC(=O)Oc1ccc2c(C)cc(=O)oc2c1OC(=O)CCC`: the EC50 was above 200 µM and the IC50 was determined as 77.6 µM.

For `C[C@H]1CCC2C(CN3CCCCC3)C(=O)OC2[C@]2(C)C(=O)CC(N3CCCCC3)C12O` (some centres not stated), the result was inactive.

For the compound `CCCC(C)(O)CCC(O)(CCC)CCC` (configuration not stated), the EC50 was above 200 µM and the IC50 was above 200 µM.

In the case of `c1ccc2sc(SSSSc3nc4ccccc4s3)nc2c1`, the EC50 was above 200 µM and the IC50 amounted to 174 µM.

Take `O=[N+]([O-])c1nccn1CCC[n+]1cccc2ccccc21`: the EC50 was above 200 µM and the IC50 was above 200 µM.

`Cc1nc(N)nc(N)c1N1CCN(c2ccc([N+](=O)[O-])cc2)CC1`: the EC50 is above 100 µM and the IC50 was 27.5 µM.

Turning to `O=C(CCC(=O)Nc1ccccc1C(F)(F)F)N/N=C1\C(=N\NC(=O)CCC(=O)Nc2ccccc2C(F)(F)F)C(c2ccc3c(c2)OCO3)Oc2ccccc21` (configuration not stated), the EC50 was above 23.4 µM and the IC50 is above 23.4 µM.

For the compound `COc1ccccc1NC(=O)C(=O)C(C#N)CC(C)(C)C=O` (configuration not stated), the EC50 is above 85.1 µM and the IC50 was above 85.1 µM.

As to `CCN(CC)C(=O)C1C[C@@H](O)CN1C(=O)c1ccc(OC)c(OC)c1` (some centres not stated), the EC50 is above 200 µM and the IC50 was above 200 µM.

In the case of `Cc1cccc(C2=NC(c3ccccc3)C(c3ccccc3)N=C2c2cccc(C)n2)n1` (configuration not stated), the EC50 was above 16.2 µM and the IC50 was above 16.2 µM.

For `COc1ccc(C2C(Cl)C(=O)N2NC(=O)c2ccc(NC(C)=O)cc2)cc1` (configuration not stated), the EC50 is above 200 µM and the IC50 was above 200 µM.

As to `OCC1C(OCc2ccccc2)C(OCc2ccccc2)C(OCc2ccccc2)CN1Cc1ccccc1` (configuration not stated), the result was inactive.

Consider `CCN(CC)CCC1CCCCN1CC(=O)N1c2cc(Cl)ccc2NC(=O)CC1C` (configuration not stated), for which the EC50 was above 200 µM and the IC50 was above 200 µM.

In the case of `COC1C(/C(=N\O)n2cnc3c(Cl)ncnc32)OC2OC(C)(C)OC21` (configuration not stated), the EC50 was above 200 µM and the IC50 is above 100 µM.

Turning to `CCCCCCCCCCCCCCCCCC(=O)OCC(C[As](=O)(O)O)OC(=O)CCCCCCCCCCCCCCCCC` (configuration not stated), the EC50 is above 17.8 µM and the IC50 was above 17.8 µM.

With `O=C(O)CCC1CCc2cccc(O)c2C1=O` (configuration not stated), the outcome was inactive.

On to `C1CCC(OCc2nnn3c2CCC3)OC1` (configuration not stated), for which the result was inactive.

Regarding `COc1cc(C2(C#N)CCN(C)CC2)cc(OC)c1OC`, the EC50 is above 871 µM and the IC50 was determined as 437 µM.

For the compound `COc1ccc(C2S/C(=C\c3ccc(O)cc3)C(=O)N2NC(=O)Cc2ccccc2)cc1` (configuration not stated), the EC50 is above 112 µM and the IC50 was above 112 µM.

As for `NC(=O)c1ncn(CC2(COC(=O)c3ccccc3)CCC2)n1`, the EC50 was above 200 µM and the IC50 is above 200 µM.

Regarding `CC1CC(C)CN(Cc2cccnc2)C1` (configuration not stated), the result was inactive.

On to `CCC1(OC(=O)CNC)C(=O)OCc2c1cc1n(c2=O)Cc2cc3ccccc3nc2-1` (configuration not stated), for which the EC50 is above 10 µM and the IC50 stood at 0.00977 µM.

Take `CCOC(=O)c1c2cccccc-2nc1Nc1cccc2c(C)ccnc12`: the result was inactive.

For the compound `O=C(Nc1ccc([N+](=O)[O-])cn1)Nc1cc([N+](=O)[O-])ccc1F`, the EC50 is above 200 µM and the IC50 worked out at 17.4 µM.

`Cc1ccc(C(=O)Nc2ccc(S(=O)(=O)O)c3cc(S(=O)(=O)O)cc(S(=O)(=O)O)c23)cc1NC(=S)Nc1cc(C(=O)Nc2ccc(S(=O)(=O)O)c3cc(S(=O)(=O)O)cc(S(=O)(=O)O)c23)ccc1C`: the EC50 is 132 µM and the IC50 was 204 µM.

Consider `O=c1[nH]nc(Cc2ccc(Cl)cc2)n1CCO`, for which the EC50 is above 200 µM and the IC50 was above 200 µM.

Take `O=Nc1ccc(Cl)cc1`: the outcome was inactive.

In the case of `CC1=CCC(Br)C(C)(C)C12CCC(C)(Cl)C(Br)C2` (configuration not stated), the EC50 is above 200 µM and the half-inhibitory concentration (IC50) came to 29.5 µM.

For `CC(C)C(NC(=O)c1ccccc1SC(=O)CCCC[n+]1ccccc1)C(N)=O` (configuration not stated), the EC50 is 1.05 µM and the IC50 is 8.71 µM.

Turning to `O=C(NC12CC3CCC1CC(C3)C2)[C@@H]1CCCN1C(=O)OCc1ccccc1` (some centres not stated), the outcome was inactive.

As to `CCCOC(=O)NC(C)C(=O)NC(CCC(=O)NC(CCCC(N)C(=O)O)C(=O)NC(C)C(=O)O)C(=O)O` (configuration not stated), the EC50 was above 50.1 µM and the IC50 was above 50.1 µM.

For the compound `NCCN.NCCN.O=C([O-])C(=O)[O-].[Cl-].[Co+3]`, the outcome was inactive.

`C=C1CC(Cn2cc(C)c(=O)[nH]c2=O)(c2ccc(-c3ccccc3)cc2)OC1=O` (configuration not stated): the EC50 is above 20 µM and the half-maximal inhibitory concentration (IC50) turned out to be 0.288 µM.

Take `O=c1[nH]c(-c2ccccc2)nc2c1sc1nc3ccccc3n12`: the EC50 was above 50.1 µM and the IC50 is above 50.1 µM.

Turning to `CCCCCCCc1cc(OC(=O)c2c(C)cc(OC)cc2O)cc(O)c1C(=O)O`, the EC50 is above 162 µM and the IC50 is 83.2 µM.

For `O=C(CS)NCCNC(=O)CS`, the EC50 was above 25.1 µM and the IC50 was above 25.1 µM.

As to `COc1ccc(-c2cc(-c3ccccc3)nc(N)c2-c2ccc3ccccc3c2)cc1`, the EC50 was above 200 µM and the IC50 was found to be 2.45 µM.

On to `O=C1C[C@H](c2ccc(O)c(O)c2)Oc2cc(O)cc(O)c21`, for which the EC50 is above 631 µM and the IC50 is 97.7 µM.

For the compound `CCOC(=O)N/N=C/C1=NN(C(=O)OCC)S(=O)C1C` (configuration not stated), the EC50 is above 200 µM and the IC50 is above 200 µM.

As for `COCc1ccc2c(c1)C(O)NC(=O)O2` (configuration not stated), the EC50 was above 200 µM and the half-inhibitory concentration (IC50) is 58.9 µM.

Regarding `CN(C)c1ccc(N2C(=S)SC(=Nc3ccccc3)C2=Nc2ccccc2)cc1`, the EC50 was above 200 µM and the IC50 was above 200 µM.

As to `CCOC(=O)NNP(=O)(NNC(=O)OCC)c1ccccc1`, the EC50 is above 110 µM and the IC50 was above 110 µM.

As for `c1ccc2c(c1)nnn2C1CCCCO1` (configuration not stated), the EC50 is above 200 µM and the IC50 is above 200 µM.

Take `COC1CC2C=C(C)/C=C/C=C/C(=O)NC(c3ccccc3)C/C=C/CCC(O)CC(=O)C2=C1O` (configuration not stated): the EC50 was above 20.9 µM and the IC50 came to 0.562 µM.

On to `Cc1cccc(C)c1NC(=S)/N=C\c1c(O)[nH]c(=O)[nH]c1=O`, for which the EC50 is above 200 µM and the IC50 was above 200 µM.

On to `O=c1c2ncn(C3CC(O)C(CO)O3)c2nnn1Cc1ccccc1[N+](=O)[O-]` (configuration not stated), for which the EC50 is above 200 µM and the IC50 was above 200 µM.

Take `CCC(CO)COC(=O)/C=C/C(=O)OCC(CC)CO` (configuration not stated): the outcome was inactive.

On to `NC(N)=NCCCC(NC(=O)OCCCCCn1ccc(N)nc1=O)C(=O)O` (configuration not stated), for which the EC50 was above 200 µM and the IC50 was above 200 µM.

Consider `COc1cc(OC)c2ccc(=O)oc2c1`, for which the EC50 was above 91.2 µM and the IC50 was above 91.2 µM.

In the case of `CN1C/C(=C\c2cccs2)c2[nH]c(=O)c(C#N)c(-c3cccs3)c2C1`, the EC50 was above 200 µM and the IC50 was above 200 µM.

Consider `CC(C)CC(NC(=O)C(Cc1ccc(O)cc1)NC(=O)C(CO)NC(=O)C(C)NC(=O)C(CCCN=C(N)N)NC(=O)C(CCC(=O)O)NC(=O)C(NC(=O)C(N)CCC(=O)O)C(C)C)C(=O)NC(CO)C(=O)NC(CCCCN)C(=O)O` (configuration not stated) (H-EVERASYLSK-OH; configuration not given here), for which the outcome was inactive.

Turning to `O=C1CCCCCCCCCCC1Sc1ccccc1` (configuration not stated), the EC50 is above 12.3 µM and the IC50 is above 12.3 µM.

On to `CC(=O)OCCn1c([N+](=O)[O-])cnc1/C=[N+](/[O-])CCO`, for which the result was inactive.

As for `C=CCn1c2c(c3ccccc3c1=O)C(=O)c1ccccc1-2`, the EC50 is above 91.2 µM and the IC50 was above 91.2 µM.

In the case of `O=S1(=O)NNC(=NCc2ccc(F)cc2)c2ccccc21`, the outcome was inactive.

Take `CC(=O)Nc1ccc(C=Nc2ccc(SSc3ccc(N=Cc4ccc(NC(C)=O)cc4)cc3)cc2)cc1`: the EC50 was above 200 µM and the IC50 was determined as 23.4 µM.

Consider `CC(=O)O/C=C\OC1CCCC1`, for which the EC50 is above 200 µM and the IC50 is above 200 µM.

Consider `CC1(C)OC2OC(COC(=O)c3ccc(C#N)cc3)C3OC(C)(C)OC3C2O1` (configuration not stated), for which the result was inactive.

On to `CCOC(C[Se]CC(OCC)OCC)OCC`, for which the EC50 was 37.2 µM and the IC50 was 112 µM.

With `CO/C=C/c1ccc2c(c1)OCO2`, the outcome was inactive.

In the case of `CCCCCCCCCCNC(=S)OC`, the result was inactive.

For the compound `O=C1c2ccccc2/C=C\C(c2ccccc2)=N/N1c1ccccc1Cl`, the EC50 is above 200 µM and the IC50 turned out to be 12.6 µM.

For `COc1ccc(NC(=O)c2c(N)c(C#N)c3n2CCC3)cc1`, the EC50 was above 200 µM and the IC50 is above 200 µM.

For `CCCCCCCCCCCCCCCCNc1ccn(C2CC(OP(=O)(O)OCC3OC(n4cc(C)c(=O)[nH]c4=O)CC3N=[N+]=[N-])C(CO)O2)c(=O)n1` (configuration not stated), the EC50 is 0.182 µM and the IC50 is 77.6 µM.

With `COc1ccc(/C=C/C(=O)/C=C/c2ccc(OC)cc2)cc1`, the EC50 was above 200 µM and the IC50 is 72.4 µM.

Take `CCCCCCCCCCCC(=O)OCCOCCOCCOCCOCCOCCOCCOCCOCCO`: the EC50 was above 200 µM and the IC50 came out at 145 µM.

With `O=C(O)CC1CC2CC(=O)C1C2` (configuration not stated), the EC50 is above 200 µM and the IC50 is above 200 µM.

As for `NC(CCCCNCC(N)C(=O)O)C(=O)O` (configuration not stated), the EC50 was above 933 µM and the IC50 is above 933 µM.

With `CC1(C)N=C(N)N=C(N)N1c1ccc(CCCCc2ccc(S(=O)(=O)F)cc2Cl)c(Cl)c1`, the EC50 was above 107 µM and the IC50 was determined as 1.41 µM.

For `C=C1CC(Cn2ccc(=O)[nH]c2=O)(c2ccc(Cl)cc2)OC1=O` (configuration not stated), the EC50 is above 20 µM and the IC50 came out at 0.912 µM.

For `O=[N+]([O-])c1ccc(C2N3CCCCC3[C@@H]3c4[nH]c5ccccc5c4CCN23)cc1` (some centres not stated), the EC50 was above 34.7 µM and the IC50 is above 34.7 µM.

For `COc1cc(OC)c2c(O)c(S(=O)(=O)c3ccc(C)cc3)c(=O)oc2c1`, the EC50 is above 200 µM and the half-inhibitory concentration (IC50) is above 200 µM.

Take `C[Si](C)(c1ccccc1)C1CC(=O)CC(=O)C1`: the EC50 was above 380 µM and the 50% inhibitory concentration (IC50) stood at 245 µM.
